# Source: patent US20250011299A1, “PYRIDAZINYL AMINO DERIVATIVES AS ALK5 INHIBITORS” (CHIESI FARMACEUTICI S.P.A., priority 2021, published 2025)
# Biological target: T1, human ALK5 (Homo sapiens, UniProt P36897)
# T1 construct: human ALK5 (recombinant TGF β1 N-term GST-tagged, 80-end); GST (N); purchased
# T1 sequence (P36897 80-503 limits assumed): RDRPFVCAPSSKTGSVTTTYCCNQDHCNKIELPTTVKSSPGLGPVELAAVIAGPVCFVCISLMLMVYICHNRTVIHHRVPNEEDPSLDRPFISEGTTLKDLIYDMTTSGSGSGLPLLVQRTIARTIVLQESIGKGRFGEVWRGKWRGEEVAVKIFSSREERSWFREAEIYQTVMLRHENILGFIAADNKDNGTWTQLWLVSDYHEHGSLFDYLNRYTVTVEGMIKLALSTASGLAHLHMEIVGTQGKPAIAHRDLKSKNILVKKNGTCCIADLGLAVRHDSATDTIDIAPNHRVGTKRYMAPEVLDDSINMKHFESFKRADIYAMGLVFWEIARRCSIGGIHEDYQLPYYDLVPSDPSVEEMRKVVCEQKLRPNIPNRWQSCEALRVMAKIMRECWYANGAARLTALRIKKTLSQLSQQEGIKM
# Assay: ADP-GLO Kinases assay of ALK5 enzymatic activity
# Type: biochemical
# Details: purified recombinant human ALK5, TGFβ1 peptide substrate, pIC50 converted to pKi by Cheng-Prusoff, high ATP protocol (15 μM) for very potent compounds, 25° C.
# Experimental: The enzymatic activity of compounds of the present invention was monitored measuring the formation of ADP using the ADP-GLO Kinases assay. Following the incubation of the purified enzyme, a substrate and ATP, the produced ADP was converted into ATP, which in turn was converted into light by Ultra-Glo Luciferase. The luminescent signal positively correlated with ADP amount and kinase activity. […] Compound and ALK5 kinase were mixed and incubated for 15 mins. […] After an incubation of 120 min, the reaction was stopped, and ADP production detected with ADP-Glo kit according to manufacturer's indications. […] After an incubation of 60 min, the kinase reaction was stopped, and ADP production detected with ADP-Glo kit according to manufacturer's indications. All reaction and incubation steps were performed at 25° C. and the assays were performed in 384-well format and validated using a selection of reference compounds tested in 11-point concentration-response curve. […] Results were expressed as pIC50 (negative logarithm of IC50) and subsequently converted to pKi (negative logarithm of […]) using the Cheng-Prusoff equation. The higher the value of pKi, the greater the inhibition of ALK5 activity.
row,SMILES,Ki [pM]
1,"O=C(CN1CCCNCC1)Nc1cc(Nc2cc(-c3cc(Cl)ccc3F)nnc2SCCO)ccn1 [Example 61, N-(4-{[6-(5-chloro-2-fluorophenyl)-3-[(2-hydroxyethyl)sulfanyl]pyridazin-4-yl]amino}pyridin-2-yl)-2-(1,4-diazepan-1-yl)acetamide]",≤ 100
2,"CN1CCN(CCC(=O)Nc2cc(Nc3cc(-c4cc(Cl)ccc4F)nnc3OCC3COC(=O)O3)ccn2)CC1 (centres unmarked) [Example 79, N-(4-{[6-(5-chloro-2-fluorophenyl)-3-[(2-oxo-1,3-dioxolan-4-yl)methoxy]pyridazin-4-yl]amino}pyridin-2-yl)-3-(4-methylpiperazin-1-yl)propanamide]",≤ 100
3,"COC(=O)c1sc(Nc2cc(Nc3cc(-c4cc(Cl)ccc4F)nnc3SCCO)ccn2)cc1C1CCN(C)CC1 [Example 92, methyl 5-[(4-{[6-(5-chloro-2-fluorophenyl)-3-[(2-hydroxyethyl)sulfanyl]pyridazin-4-yl]amino}pyridin-2-yl)amino]-3-(1-methylpiperidin-4-yl)thiophene-2-carboxylate]",≤ 100
4,"COC(=O)COc1nnc(-c2cc(Cl)ccc2F)cc1Nc1ccnc(NC(=O)CCN2CCN(C)CC2)c1 [Example 15, methyl 2-{[6-(5-chloro-2-fluorophenyl)-4-({2-[3-(4-methylpiperazin-1-yl)propanamido]pyridin-4-yl}amino)pyridazin-3-yl]oxy}acetate]",126 to 316
5,"CSCCCOc1nnc(-c2cc(Cl)ccc2F)cc1Nc1ccnc(NC(=O)CCN2CCN(C)CC2)c1 [Example 4, N-(4-{[6-(5-chloro-2-fluorophenyl)-3-[3-(methylsulfanyl)propoxy]pyridazin-4-yl]amino}pyridin-2-yl)-3-(4-methylpiperazin-1-yl)propanamide]",126 to 316
6,"CN1CCN(CCC(=O)Nc2cc(Nc3cc(-c4cc(Cl)ccc4F)nnc3OCCCS(C)(=O)=O)ccn2)CC1 [Example 7, N-(4-{[6-(5-chloro-2-fluorophenyl)-3-(3-methanesulfonylpropoxy)pyridazin-4-yl]amino}pyridin-2-yl)-3-(4-methylpiperazin-1-yl)propanamide]",≤ 100
7,"CN1CCN(CCC(=O)Nc2cc(Nc3cc(-c4cc(Cl)ccc4F)nnc3N(C)CC3CCOC3=O)ccn2)CC1 (centres unmarked) [Example 108, N-(4-{[6-(5-chloro-2-fluorophenyl)-3-{methyl[(2-oxooxolan-3-yl)methyl]amino}pyridazin-4-yl]amino}pyridin-2-yl)-3-(4-methylpiperazin-1-yl)propanamide]",≤ 100
8,"CN1CCN(CCOc2nnc(-c3cc(Cl)ccc3F)cc2Nc2ccnc(NC(=O)C3CC3)c2)CC1 [Example 36, N-(4-{[6-(5-chloro-2-fluorophenyl)-3-[2-(4-methylpiperazin-1-yl)ethoxy]pyridazin-4-yl]amino}pyridin-2-yl)cyclopropanecarboxamide]",≤ 100
9,"CN1CCN(CCC(=O)Nc2cc(Nc3cc(-c4cc(Cl)ccc4F)nnc3SC(C)(C)CO)ccn2)CC1 [Example 93, N-(4-{[6-(5-chloro-2-fluorophenyl)-3-[(1-hydroxy-2-methylpropan-2-yl)sulfanyl]pyridazin-4-yl]amino}pyridin-2-yl)-3-(4-methylpiperazin-1-yl)propanamide]",126 to 316
10,"CN1CCN([C@H]2C[C@H](C(=O)Nc3cc(Nc4cc(-c5cc(Cl)ccc5F)nnc4OC4CCOC4)ccn3)C2)CC1 (single isomer, unassigned) [Example 114, N-(4-{[6-(5-chloro-2-fluorophenyl)-3-(oxolan-3-yloxy)pyridazin-4-yl]amino}pyridin-2-yl)-3-(4-methylpiperazin-1-yl)cyclobutane-1-carboxamide]",126 to 316
11,"CN1CC(COc2nnc(-c3cc(Cl)ccc3F)cc2Nc2ccnc(NC(=O)C3CC3)c2)C1 [Example 44, N-(4-{[6-(5-chloro-2-fluorophenyl)-3-[(1-methylazetidin-3-yl)methoxy]pyridazin-4-yl]amino}pyridin-2-yl)cyclopropanecarboxamide]",126 to 316
12,"CN1CCN(CCC(=O)Nc2cc(Nc3cc(-c4cc(Cl)ccc4F)nnc3OCc3cccc(O)c3)ccn2)CC1 [Example 81, N-(4-{[6-(5-chloro-2-fluorophenyl)-3-[(3-hydroxyphenyl)methoxy]pyridazin-4-yl]amino}pyridin-2-yl)-3-(4-methylpiperazin-1-yl)propanamide]",≤ 100
13,"C[N+](C)(C)CCCOc1nnc(-c2cc(Cl)ccc2F)cc1Nc1ccnc(NC(=O)C2CC2)c1 [Example 58, (3-{[6-(5-chloro-2-fluorophenyl)-4-[(2-cyclopropaneamidopyridin-4-yl)amino]pyridazin-3-yl]oxy}propyl)trimethylazanium chloride]",398 to 3160
14,"CN1CCN(CCC(=O)Nc2cc(Nc3cc(-c4cc(Cl)ccc4F)nnc3N3CC(CO)C3)ccn2)CC1 [Example 95, N-(4-{[6-(5-chloro-2-fluorophenyl)-3-[3-(hydroxymethyl)azetidin-1-yl]pyridazin-4-yl]amino}pyridin-2-yl)-3-(4-methylpiperazin-1-yl)propanamide]",≤ 100

# Other lines, results leading:
row,Ki [pM],SMILES
1,≤ 100,"CN1CCN([C@H]2C[C@@H](C(=O)Nc3cc(Nc4cc(-c5cc(Cl)ccc5F)nnc4OC[C@H]4C[C@@](C)(O)C4)ccn3)C2)CC1 [Example 124, Cis N-(4-{[6-(5-chloro-2-fluorophenyl)-3-[(3-hydroxy-3-methylcyclobutyl)methoxy]pyridazin-4-yl]amino}pyridin-2-yl)-3-(4-methylpiperazin-1-yl)cyclobutane-1-carboxamide]"
2,≤ 100,"CN1CCCN(CC(=O)Nc2cc(Nc3cc(-c4cc(Cl)ccc4F)nnc3N(C)CC3(C)CCOC3=O)ncn2)CC1 (single isomer, unassigned) [Example 208, N-(6-{[6-(5-chloro-2-fluorophenyl)-3-{methyl[(3-methyl-2-oxooxolan-3-yl)methyl]amino}pyridazin-4-yl]amino}pyrimidin-4-yl)-2-(4-methyl-1,4-diazepan-1-yl)acetamide]"
3,≤ 100,"O=C(Nc1cc(Nc2cc(-c3cc(Cl)ccc3F)nnc2SCCO)ccn1)[C@H]1C[C@@H](N2CCN(C3CC3)CC2)C1 [Example 160, Cis N-(4-{[6-(5-chloro-2-fluorophenyl)-3-[(2-hydroxyethyl)sulfanyl]pyridazin-4-yl]amino}pyridin-2-yl)-3-(4-cyclopropylpiperazin-1-yl)cyclobutane-1-carboxamide]"
4,≤ 100,"CN1CCN([C@@H]2CC[C@@H](C(=O)Nc3cc(Nc4cc(-c5cc(Cl)ccc5F)nnc4SCCO)ccn3)C2)CC1 (single isomer, unassigned; enantiomer 1) [Example 189, Trans Enantiomer 1 N-(4-{[6-(5-chloro-2-fluorophenyl)-3-[(2-hydroxyethyl)sulfanyl]pyridazin-4-yl]amino}pyridin-2-yl)-3-(4-methylpiperazin-1-yl)cyclopentane-1-carboxamide]"
5,126 to 316,"CN1CCN(CCC(=O)Nc2cc(Nc3cc(-c4cc(Cl)ccc4F)nnc3OCc3ccc4c(c3)OC(C)(C)O4)ccn2)CC1 [Example 116, N-(4-{[6-(5-chloro-2-fluorophenyl)-3-[(2,2-dimethyl-2H-1,3-benzodioxol-5-yl)methoxy]pyridazin-4-yl]amino}pyridin-2-yl)-3-(4-methylpiperazin-1-yl)propanamide]"
6,≤ 100,"CN1CCN([C@H]2C[C@@H](C(=O)Nc3cc(Nc4cc(-c5cc(Cl)ccc5F)nnc4SCCO)ccn3)C2)CC1CCF (mixture of isomers) [Example 172, Cis N-(4-{[6-(5-chloro-2-fluorophenyl)-3-[(2-hydroxyethyl)sulfanyl]pyridazin-4-yl]amino}pyridin-2-yl)-3-[3-(2-fluoroethyl)-4-methylpiperazin-1-yl]cyclobutane-1-carboxamide]"
7,≤ 100,"CN1CCN(CCC(=O)Nc2cc(Nc3cc(-c4cc(Cl)ccc4F)nnc3N(C)CC3(C)CCOC3=O)ccn2)CC1 (single isomer, unassigned) [Example 128, N-(4-{[6-(5-chloro-2-fluorophenyl)-3-{methyl[(3-methyl-2-oxooxolan-3-yl)methyl]amino}pyridazin-4-yl]amino}pyridin-2-yl)-3-(4-methylpiperazin-1-yl)propanamide]"
8,≤ 100,"CN1CCN(CCC(=O)Nc2cc(Nc3cc(-c4cc(Cl)ccc4F)nnc3SCc3ccc(C(=O)O)cc3)ccn2)CC1 [Example 203, 4-({[6-(5-chloro-2-fluorophenyl)-4-({2-[3-(4-methylpiperazin-1-yl)propanamido]pyridin-4-yl}amino)pyridazin-3-yl]sulfanyl}methyl)benzoic acid]"
9,≤ 100,"CN1CCN([C@H]2C[C@@H](C(=O)Nc3cc(Nc4cc(-c5cc(Cl)ccc5F)nnc4OCc4cccc(O)c4)ccn3)C2)CC1 [Example 119, Cis N-(4-{[6-(5-chloro-2-fluorophenyl)-3-[(3-hydroxyphenyl)methoxy]pyridazin-4-yl]amino}pyridin-2-yl)-3-(4-methylpiperazin-1-yl)cyclobutane-1-carboxamide]"
